Measurements: US6737383B1, “Herbicidal oxadiazolidines” (priority 1999, dated 2004)

Assays:
purple nutsedge = assay: Test B pre/postemergence purple nutsedge; assay type: in vivo, Cyperus rotundus
Method in brief: (§1)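 Test chemicals in a non-phytotoxic solvent mixture with surfactant were sprayed preemergence onto planted seeds and postemergence onto plants 2 to 18 cm tall (1- to 4-leaf stage). After twelve to sixteen days in a greenhouse, injury was visually rated against untreated controls from 0 (no effect) to 10 (complete control).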

morningglory = assay: Test B pre/postemergence morningglory; assay type: in vivo, Ipomoea hederacea
Method in brief: as §1

wild oat = assay: Test B pre/postemergence wild oat; assay type: in vivo, Avena fatua
Method in brief: as §1

giant foxtail = assay: Test B pre/postemergence giant foxtail; assay type: in vivo, Setaria faberii
Method in brief: as §1

duck salad = assay: Test B flood test duck salad; assay type: in vivo, Heteranthera limosa
Method in brief: (§2)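 Flood test on plants grown to the 2-leaf stage; treated plants kept in greenhouse twelve to sixteen days, then visually rated against controls on a 0 (no effect) to 10 (complete control) scale.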

rape = assay: Test B pre/postemergence rape; assay type: in vivo, Brassica napus
Method in brief: as §1

bamyardgrass = assay: Test B flood test barnyardgrass; assay type: in vivo, Echinochloa crus-galli
Method in brief: as §2

blackgrass = assay: Test B pre/postemergence blackgrass; assay type: in vivo, Alopecurus myosuroides
Method in brief: as §1

wheat = assay: Test B pre/postemergence wheat; assay type: in vivo, Triticum aestivum
Method in brief: as §1

soybean = assay: Test B pre/postemergence soybean; assay type: in vivo, Glycine max
Method in brief: as §1

surinam grass = assay: Test B pre/postemergence surinam grass; assay type: in vivo, Brachiaria decumbens
Method in brief: as §1

pigweed = assay: Test B pre/postemergence pigweed; assay type: in vivo, Amaranthus retroflexus
Method in brief: as §1

smallflower flatsedge = assay: Test B flood test smallflower flatsedge; assay type: in vivo, Cyperus difformis
Method in brief: as §2

bedstraw = assay: Test B pre/postemergence bedstraw; assay type: in vivo, Galium aparine
Method in brief: as §1

cocklebur = assay: Test B pre/postemergence cocklebur; assay type: in vivo, Xanthium strumarium
Method in brief: as §1

sugar beet = assay: Test B pre/postemergence sugar beet; assay type: in vivo, Beta vulgaris
Method in brief: as §1

[1] = Postemergence, Rate 31 g/ha, visual rating, scale 0 to 10 (0 no effect, 10 complete control)
[2] = Preemergence, Rate 62 g/ha, scale of 0 to 10 where 0 is no effect and 10 is complete control
[3] = Rate 62 g/ha, Postemergence, scale 0 to 10 (0 no effect, 10 complete control)
[4] = Rate 125 g/ha, Postemergence, scale of 0 to 10 where 0 is no effect and 10 is complete control
[5] = Rate 125 g/ha, Preemergence, scale of 0 to 10 where 0 is no effect and 10 is complete control
[6] = Rate 250 g/ha, Postemergence, scale of 0 to 10 where 0 is no effect and 10 is complete control
[7] = Preemergence, Rate 250 g/ha, scale of 0 to 10 where 0 is no effect and 10 is complete control
[8] = Preemergence, Rate 31 g/ha, visual rating, scale 0 to 10 (0 no effect, 10 complete control)
[9] = Rate 31 g/ha, Pre-emergence section (flood test species), scale 0 to 10
[10] = Rate 62 g/ha, headed Pre-emergence (flood test species), scale 0 to 10 (0 no effect, 10 complete control)
[11] = Rate 125 g/ha, Pre-emergence, flood test species, scale 0 to 10 where 0 is no effect and 10 is complete control
[12] = Rate 250 g/ha, Pre-emergence, flood-test species, scale 0 to 10, 0 is no effect, 10 is complete control

CC(C)N(C(=O)n1oc(=O)n(C(C)C)c1=O)c1cnccn1 [Compound 296]
Nutsedge plant response rating (purple nutsedge; [1]): 0
Nutsedge plant response rating (purple nutsedge; [2]): 0
Nutsedge plant response rating (purple nutsedge; [3]): 0
Nutsedge plant response rating (purple nutsedge; [4]): 0
Nutsedge plant response rating (purple nutsedge; [5]): 0
Plant response rating, Nutsedge (purple nutsedge; [6]): 0
Morningglory plant response rating (morningglory; [1]): 0
Morningglory plant response rating (morningglory; [2]): 0
Morningglory plant response rating (morningglory; [7]): 0
Morningglory plant response rating (morningglory; [3]): 0
Morningglory plant response rating (morningglory; [4]): 0
Morningglory plant response rating (morningglory; [5]): 0
Plant response rating, Morningglory (morningglory; [6]): 1
Wild oats plant response rating (wild oat; [1]): 0
Wild oats plant response rating (wild oat; [2]): 0
Wild oats plant response rating (wild oat; [7]): 0
Wild oats plant response rating (wild oat; [3]): 0
Wild oats plant response rating (wild oat; [4]): 0
Plant response rating, Wild oats (wild oat; [6]): 0
Giant foxtail plant response rating (giant foxtail; [1]): 0
Giant foxtail plant response rating (giant foxtail; [8]): 0
Giant foxtail plant response rating (giant foxtail; [2]): 0
Giant foxtail plant response rating (giant foxtail; [7]): 0
Giant foxtail plant response rating (giant foxtail; [3]): 0
Giant foxtail plant response rating (giant foxtail; [4]): 0
Giant foxtail plant response rating (giant foxtail; [5]): 0
Plant response rating, Giant foxtail (giant foxtail; [6]): 0
Ducksalad plant response rating (duck salad; [9]): 0
Ducksalad plant response rating (duck salad; [10]): 0
Ducksalad plant response rating (duck salad; [11]): 0
Ducksalad plant response rating (duck salad; [12]): 0
Rape plant response rating (rape; [1]): 0
Rape plant response rating (rape; [2]): 0
Rape plant response rating (rape; [7]): 0
Rape plant response rating (rape; [3]): 0
Rape plant response rating (rape; [4]): 0
Rape plant response rating (rape; [5]): 0
Plant response rating, Rape (rape; [6]): 0
Barnyardgrass plant response rating (bamyardgrass; [9]): 0
Barnyardgrass plant response rating (bamyardgrass; [10]): 0
Barnyardgrass plant response rating (bamyardgrass; [11]): 0
Barnyardgrass plant response rating (bamyardgrass; [12]): 0
Blackgrass plant response rating (blackgrass; [1]): 0
Blackgrass plant response rating (blackgrass; [8]): 0
Blackgrass plant response rating (blackgrass; [2]): 0
Blackgrass plant response rating (blackgrass; [7]): 0
Blackgrass plant response rating (blackgrass; [3]): 0
Blackgrass plant response rating (blackgrass; [4]): 0
Blackgrass plant response rating (blackgrass; [5]): 0
Plant response rating, Blackgrass (blackgrass; [6]): 0
Wheat plant response rating (wheat; [1]): 0
Wheat plant response rating (wheat; [2]): 0
Wheat plant response rating (wheat; [7]): 0
Wheat plant response rating (wheat; [3]): 0
Wheat plant response rating (wheat; [4]): 0
Wheat plant response rating (wheat; [5]): 0
Plant response rating, Wheat (wheat; [6]): 0
Soybean plant response rating (soybean; [1]): 0
Soybean plant response rating (soybean; [2]): 0
Soybean plant response rating (soybean; [7]): 0
Soybean plant response rating (soybean; [3]): 0
Soybean plant response rating (soybean; [4]): 0
Soybean plant response rating (soybean; [5]): 0
Plant response rating, Soybean (soybean; [6]): 1
B. signalgrass plant response rating (surinam grass; [1]): 0
B. signalgrass plant response rating (surinam grass; [8]): 0
B. signalgrass plant response rating (surinam grass; [2]): 0
B. signalgrass plant response rating (surinam grass; [7]): 0
B. signalgrass plant response rating (surinam grass; [3]): 0
B. signalgrass plant response rating (surinam grass; [4]): 0
B. signalgrass plant response rating (surinam grass; [5]): 0
Plant response rating, B. signalgrass (surinam grass; [6]): 0
Redroot pigweed plant response rating (pigweed; [1]): 0
Redroot pigweed plant response rating (pigweed; [2]): 0
Redroot pigweed plant response rating (pigweed; [7]): 0
Redroot pigweed plant response rating (pigweed; [3]): 0
Redroot pigweed plant response rating (pigweed; [4]): 0
Redroot pigweed plant response rating (pigweed; [5]): 0
Plant response rating, Redroot pigweed (pigweed; [6]): 0
S. Flatsedge plant response rating (smallflower flatsedge; [9]): 0
S. Flatsedge plant response rating (smallflower flatsedge; [10]): 0
S. Flatsedge plant response rating (smallflower flatsedge; [11]): 0
S. Flatsedge plant response rating (smallflower flatsedge; [12]): 0
Bedstraw plant response rating (bedstraw; [1]): 0
Bedstraw plant response rating (bedstraw; [8]): 0
Bedstraw plant response rating (bedstraw; [2]): 0
Bedstraw plant response rating (bedstraw; [7]): 0
Bedstraw plant response rating (bedstraw; [3]): 0
Bedstraw plant response rating (bedstraw; [4]): 0
Bedstraw plant response rating (bedstraw; [5]): 0
Plant response rating, Bedstraw (bedstraw; [6]): 0
Cocklebur plant response rating (cocklebur; [1]): 0
Cocklebur plant response rating (cocklebur; [8]): 0
Cocklebur plant response rating (cocklebur; [2]): 0
Cocklebur plant response rating (cocklebur; [7]): 0
Cocklebur plant response rating (cocklebur; [3]): 0
Cocklebur plant response rating (cocklebur; [4]): 0
Cocklebur plant response rating (cocklebur; [5]): 0
Plant response rating, Cocklebur (cocklebur; [6]): 0
Sugarbeets plant response rating (sugar beet; [1]): 0
Sugarbeets plant response rating (sugar beet; [2]): 0
Sugarbeets plant response rating (sugar beet; [7]): 0
Sugarbeets plant response rating (sugar beet; [3]): 0
Sugarbeets plant response rating (sugar beet; [4]): 0
Sugarbeets plant response rating (sugar beet; [5]): 0
Plant response rating, Sugarbeets (sugar beet; [6]): 0
